Measurements published in patent US20230265151A1, “GIP/GLP1 CO-AGONIST COMPOUNDS” (priority 2020, published 2023).
Like-named read-outs stand apart in the source and are kept apart here. *1 amine or outer side, *2 acyl side, *3 side chain or, on linkers, in order; H or OH if unused. Where a SMILES comes first, the peptide text is derived from it. Side-chain parts run from the residue outwards. [ ]: non-standard residue; d: D form. The star is where a group is joined. αMePhe(2-F) = C[C@](N)(Cc1ccccc1F)C(=O)O; γGlu = O=C(O)[C@H](CCC(=O)[*:2])N[*:1]; C14 diacid = O=C(O)CCCCCCCCCCCCC(=O)*; αMeY = C[C@](N)(Cc1ccc(O)cc1)C(=O)O; 4Pal = N[C@@H](Cc1ccncc1)C(=O)O; αMeL = CC(C)C[C@](C)(N)C(=O)O; Orn = NCCC[C@H](N)C(=O)O; AEEA = NCCOCCOCC(=O)O; Aib = CC(C)(N)C(=O)O

Key:
Format in all cases: cell-based
[1] = target: hGLP-1R (Homo sapiens, UniProt P43220); experiment: Functional cAMP formation (HTRF) in HEK-293 clonal cells expressing hGLP-1R, 0.1% bovine casein, without or with 1.0% human serum albumin; set-up: expressed in transfected cells; conditions: for EC50: geometric mean
Method in brief: (§1)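 Cells were stimulated with peptide for 30 min at 37° C, then lysed in buffer carrying cAMP-d2 and anti-cAMP Eu3+-cryptate for a competitive HTRF read after at least 60 min at room temperature. The 665/620 nm ratio was converted to nM cAMP against a standard curve.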

[2] = target: T1, hGCGR (Homo sapiens, UniProt P47871); experiment: Functional cAMP formation (HTRF) in HEK-293 clonal cells expressing hGCGR, 0.1% bovine casein, without or with 1.0% human serum albumin; conditions: geometric mean
T1 construct: expressed in transfected cells
Method in brief: as §1

[3] = target: T2, hGIPR (Homo sapiens, UniProt P48546); experiment: Functional cAMP formation (HTRF) in HEK-293 clonal cells expressing hGIPR, 0.1% bovine casein, without or with 1.0% human serum albumin; conditions: for EC50: geometric mean
T2 construct: expressed in transfected cells
T2 sequence (P48546 22-466): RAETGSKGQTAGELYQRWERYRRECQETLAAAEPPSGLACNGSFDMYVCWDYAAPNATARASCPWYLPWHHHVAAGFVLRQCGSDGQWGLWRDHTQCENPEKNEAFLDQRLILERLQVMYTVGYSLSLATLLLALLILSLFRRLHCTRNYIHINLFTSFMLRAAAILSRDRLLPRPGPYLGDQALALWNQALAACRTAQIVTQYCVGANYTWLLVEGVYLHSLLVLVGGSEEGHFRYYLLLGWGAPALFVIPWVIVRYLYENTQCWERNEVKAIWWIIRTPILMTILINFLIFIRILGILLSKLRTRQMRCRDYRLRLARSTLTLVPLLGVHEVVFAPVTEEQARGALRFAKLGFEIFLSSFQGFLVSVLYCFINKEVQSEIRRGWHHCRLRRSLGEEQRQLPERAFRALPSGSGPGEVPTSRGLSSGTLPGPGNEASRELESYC
Method in brief: as §1

[4] = 0.1% bovine casein and 1.0% human serum albumin, 37° C., read-out: hGLP-1R EC50, nM (SEM, n)
[5] = HEK293, 0.1% bovine casein and 1.0% human serum albumin, 37° C., percent of maximal response to GLP-1(7-36)NH2, read-out: hGLP-1R Emax, % ± SEM
[6] = HEK293, percent of maximal response to GLP-1(7-36)NH2, 37° C., 0.1% bovine casein, arithmetic mean, read-out: hGLP-1R Emax, % ± SEM
[7] = cAMP, incubated at 37° C., 0.1% bovine casein (no human serum albumin), read-out: hGLP-1R EC50, nM (SEM, n)
[8] = 0.1% bovine casein and 1.0% human serum albumin, 37° C., read-out: hGCGR EC50, nM (SEM, n)
[9] = cAMP, incubated at 37° C., 0.1% bovine casein (no human serum albumin), read-out: hGCGR EC50, nM (SEM, n)
[10] = HEK293, 0.1% bovine casein and 1.0% human serum albumin, 37° C., percent of maximal response to GIP(1-42)NH2, read-out: hGIPR Emax, % ± SEM
[11] = HEK293, percent of maximal response to GIP(1-42)NH2, 37° C., 0.1% bovine casein, arithmetic mean, read-out: hGIPR Emax, % ± SEM
[12] = cAMP, incubated at 37° C., 0.1% bovine casein (no human serum albumin), read-out: hGIPR EC50, nM (SEM, n)
[13] = 0.1% bovine casein and 1.0% human serum albumin, 37° C., read-out: hGIPR EC50, nM (SEM, n)

T1 sequence (P47871 26-477): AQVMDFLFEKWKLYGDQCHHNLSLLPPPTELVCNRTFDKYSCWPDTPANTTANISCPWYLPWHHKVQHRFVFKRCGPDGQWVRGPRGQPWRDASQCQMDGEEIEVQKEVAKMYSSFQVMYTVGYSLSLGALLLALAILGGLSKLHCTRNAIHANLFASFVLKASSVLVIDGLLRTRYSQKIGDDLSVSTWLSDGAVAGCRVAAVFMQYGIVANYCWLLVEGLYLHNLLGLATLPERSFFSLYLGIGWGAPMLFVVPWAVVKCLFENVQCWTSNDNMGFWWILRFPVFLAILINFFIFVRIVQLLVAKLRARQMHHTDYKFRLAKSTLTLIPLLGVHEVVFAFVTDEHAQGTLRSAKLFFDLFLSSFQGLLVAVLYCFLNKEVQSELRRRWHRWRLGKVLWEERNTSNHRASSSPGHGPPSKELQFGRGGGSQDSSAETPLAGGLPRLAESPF
hGLP-1R, sequence (P43220 24-463): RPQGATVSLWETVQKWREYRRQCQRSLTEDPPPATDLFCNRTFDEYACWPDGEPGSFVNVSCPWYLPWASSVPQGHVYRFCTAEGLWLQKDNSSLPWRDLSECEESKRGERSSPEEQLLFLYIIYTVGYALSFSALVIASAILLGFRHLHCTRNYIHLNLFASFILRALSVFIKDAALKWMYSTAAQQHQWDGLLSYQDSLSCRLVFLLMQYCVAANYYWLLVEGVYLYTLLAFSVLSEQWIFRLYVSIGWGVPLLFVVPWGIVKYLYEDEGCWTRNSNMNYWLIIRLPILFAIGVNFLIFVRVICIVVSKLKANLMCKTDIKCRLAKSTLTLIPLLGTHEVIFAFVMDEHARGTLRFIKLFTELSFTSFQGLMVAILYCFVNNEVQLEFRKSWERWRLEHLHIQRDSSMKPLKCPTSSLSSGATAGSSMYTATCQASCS

Structure (SMILES)	EC50 [1, 4] [nM]	Emax [1, 5] [%]	Emax [1, 6] [%]	EC50 [1, 7] [nM]	EC50 [2, 8] [nM]	EC50 [2, 9] [nM]	Emax [3, 10] [%]	Emax [3, 11] [%]	EC50 [3, 12] [nM]	EC50 [3, 13] [nM]	Emax ([1]; HEK293, read-out: hGLP-1R Emax, % ± SEM, 0.1% bovine casein and 1.0% human serum albumin, 37° C., percent of maximal response to GLP-1(7-36)NH2) [%]	Emax ([1]; HEK293, read-out: hGLP-1R Emax, % ± SEM, percent of maximal response to GLP-1(7-36)NH2, 37° C., 0.1% bovine casein, arithmetic mean) [%]	EC50 ([1]; hGLP-1R EC50, nM (SEM, n), 0.1% bovine casein and 1.0% human serum albumin, 37° C.) [nM]	EC50 ([1]; hGLP-1R EC50, nM (SEM, n), cAMP, incubated at 37° C., 0.1% bovine casein (no human serum albumin)) [nM]	EC50 ([2]; hGCGR EC50, nM (SEM, n), 0.1% bovine casein and 1.0% human serum albumin, 37° C.) [nM]	EC50 ([2]; hGCGR EC50, nM (SEM, n), cAMP, incubated at 37° C., 0.1% bovine casein (no human serum albumin)) [nM]	Emax ([3]; HEK293, read-out: hGIPR Emax, % ± SEM, 0.1% bovine casein and 1.0% human serum albumin, 37° C., percent of maximal response to GIP(1-42)NH2) [%]	Emax ([3]; HEK293, read-out: hGIPR Emax, % ± SEM, percent of maximal response to GIP(1-42)NH2, 37° C., 0.1% bovine casein, arithmetic mean) [%]	EC50 ([3]; hGIPR EC50, nM (SEM, n), 0.1% bovine casein and 1.0% human serum albumin, 37° C.) [nM]	EC50 ([3]; hGIPR EC50, nM (SEM, n), cAMP, incubated at 37° C., 0.1% bovine casein (no human serum albumin)) [nM]
CC[C@H](C)[C@H](NC(=O)[C@H](CCCN)NC(=O)[C@H](CC(=O)O)NC(=O)[C@H](CC(C)C)NC(=O)[C@](C)(CC(C)C)NC(=O)[C@@H](NC(=O)[C@](C)(CO)NC(=O)[C@H](Cc1ccncc1)NC(=O)[C@H](CC(=O)O)NC(=O)[C@H](CO)NC(=O)[C@@H](NC(=O)[C@](C)(Cc1ccccc1F)NC(=O)[C@@H](NC(=O)CNC(=O)[C@H](CCC(=O)O)NC(=O)C(C)(C)NC(=O)[C@@H](N)Cc1ccc(O)cc1)[C@@H](C)O)[C@@H](C)O)[C@@H](C)CC)C(=O)N[C@@H](C)C(=O)N[C@@H](CCC(N)=O)C(=O)NC(C)(C)C(=O)N[C@@H](CCC(=O)O)C(=O)N[C@@H](Cc1ccccc1)C(=O)N[C@H](C(=O)N[C@@H](CCCCNC(=O)COCCOCCNC(=O)COCCOCCNC(=O)CC[C@H](NC(=O)CCCCCCCCCCCCC(=O)O)C(=O)O)C(=O)N[C@@](C)(Cc1ccc(O)cc1)C(=O)N[C@@H](CC(C)C)C(=O)N[C@H](C(=O)N[C@@H](CCCCNC(=O)COCCOCCNC(=O)COCCOCCNC(=O)CC[C@H](NC(=O)CCCCCCCCCCCCC(=O)O)C(=O)O)C(=O)NCC(=O)NCC(=O)N1CCC[C@H]1C(=O)N[C@@H](CO)C(=O)N[C@@H](CO)C(=O)NCC(=O)N[C@@H](C)C(=O)N1CCC[C@H]1C(=O)N1CCC[C@H]1C(=O)N1CCC[C@H]1C(=O)N[C@@H](CO)C(N)=O)[C@@H](C)CC)[C@@H](C)CC [Example 216]	32.3	117	93.6	0.384	> 9950	> 9950	63.4	88.5	0.0287	–	–	–	–	–	–	–	–	–	–	–
CC[C@H](C)[C@H](NC(=O)[C@H](CCCN)NC(=O)[C@H](CC(=O)O)NC(=O)[C@H](CC(C)C)NC(=O)[C@](C)(CC(C)C)NC(=O)[C@@H](NC(=O)[C@](C)(CO)NC(=O)[C@H](Cc1ccncc1)NC(=O)[C@H](CC(=O)O)NC(=O)[C@H](CO)NC(=O)[C@@H](NC(=O)[C@](C)(Cc1ccccc1F)NC(=O)[C@@H](NC(=O)CNC(=O)[C@H](CCC(=O)O)NC(=O)C(C)(C)NC(=O)[C@@H](N)Cc1ccc(O)cc1)[C@@H](C)O)[C@@H](C)O)[C@@H](C)CC)C(=O)N[C@@H](C)C(=O)N[C@@H](CCC(N)=O)C(=O)NC(C)(C)C(=O)N[C@@H](CCCCNC(=O)COCCOCCNC(=O)COCCOCCNC(=O)CC[C@H](NC(=O)CCCCCCCCCCCCC(=O)O)C(=O)O)C(=O)N[C@@H](Cc1ccccc1)C(=O)N[C@H](C(=O)N[C@H](CCC(=O)O)C(=O)N[C@@](C)(Cc1ccc(O)cc1)C(=O)N[C@@H](CC(C)C)C(=O)N[C@H](C(=O)N[C@@H](CCCCNC(=O)COCCOCCNC(=O)COCCOCCNC(=O)CC[C@H](NC(=O)CCCCCCCCCCCCC(=O)O)C(=O)O)C(=O)NCC(=O)NCC(=O)N1CCC[C@H]1C(=O)N[C@@H](CO)C(=O)N[C@@H](CO)C(=O)NCC(=O)N[C@@H](C)C(=O)N1CCC[C@H]1C(=O)N1CCC[C@H]1C(=O)N1CCC[C@H]1C(=O)N[C@@H](CO)C(N)=O)[C@@H](C)CC)[C@@H](C)CC [Example 217]	–	118	88	0.436	> 9950	> 9950	62.7	95.5	0.0309	7.84	–	–	–	–	–	–	–	–	–	–
CC[C@H](C)[C@H](NC(=O)[C@H](CCCN)NC(=O)[C@H](CC(=O)O)NC(=O)[C@H](CC(C)C)NC(=O)[C@](C)(CC(C)C)NC(=O)[C@@H](NC(=O)C(C)(C)NC(=O)[C@H](Cc1ccncc1)NC(=O)[C@H](CC(=O)O)NC(=O)[C@H](CO)NC(=O)[C@@H](NC(=O)[C@](C)(Cc1ccccc1F)NC(=O)[C@@H](NC(=O)CNC(=O)[C@H](CCC(=O)O)NC(=O)C(C)(C)NC(=O)[C@@H](N)Cc1ccc(O)cc1)[C@@H](C)O)[C@@H](C)O)[C@@H](C)CC)C(=O)N[C@@H](C)C(=O)N[C@@H](CCC(N)=O)C(=O)NC(C)(C)C(=O)N[C@@H](CCCCNC(=O)COCCOCCNC(=O)COCCOCCNC(=O)CC[C@H](NC(=O)CCCCCCCCCCCCC(=O)O)C(=O)O)C(=O)N[C@@H](Cc1ccccc1)C(=O)N[C@H](C(=O)N[C@@H](CCCCNC(=O)COCCOCCNC(=O)COCCOCCNC(=O)CC[C@H](NC(=O)CCCCCCCCCCCCC(=O)O)C(=O)O)C(=O)N[C@@](C)(Cc1ccc(O)cc1)C(=O)N[C@@H](CC(C)C)C(=O)N[C@H](C(=O)N[C@@H](CCC(=O)O)C(=O)NCC(=O)NCC(=O)N1CCC[C@H]1C(=O)N[C@@H](CO)C(=O)N[C@@H](CO)C(=O)NCC(=O)N[C@@H](C)C(=O)N1CCC[C@H]1C(=O)N1CCC[C@H]1C(=O)N1CCC[C@H]1C(=O)N[C@@H](CO)C(N)=O)[C@@H](C)CC)[C@@H](C)CC [Example 218] (H-Y[Aib]EGT[αMePhe(2-F)]TSD[4Pal][Aib]I[αMeL]LD[Orn]IAQ[Aib]K([AEEA-AEEA-γGlu-C14 diacid])FIK([AEEA-AEEA-γGlu-C14 diacid])[αMeY]LIEGGPSSGAPPPS-NH2; N-terminus assumed)	–	–	–	–	–	–	–	–	–	–	121	92.6	36.6	0.714	> 9950	> 9950	95.9	90.2	3.27	0.0515
CC[C@H](C)[C@H](NC(=O)[C@H](CCCN)NC(=O)[C@H](CC(=O)O)NC(=O)[C@H](CC(C)C)NC(=O)[C@](C)(CC(C)C)NC(=O)[C@@H](NC(=O)C(C)(C)NC(=O)[C@H](Cc1ccncc1)NC(=O)[C@H](CC(=O)O)NC(=O)[C@H](CO)NC(=O)[C@@H](NC(=O)[C@](C)(Cc1ccccc1F)NC(=O)[C@@H](NC(=O)CNC(=O)[C@H](CCC(=O)O)NC(=O)C(C)(C)NC(=O)[C@@H](N)Cc1ccc(O)cc1)[C@@H](C)O)[C@@H](C)O)[C@@H](C)CC)C(=O)N[C@@H](C)C(=O)N[C@@H](CCC(N)=O)C(=O)NC(C)(C)C(=O)N[C@@H](CCCCNC(=O)COCCOCCNC(=O)COCCOCCNC(=O)CC[C@H](NC(=O)CCCCCCCCCCCCC(=O)O)C(=O)O)C(=O)N[C@@H](Cc1ccccc1)C(=O)N[C@H](C(=O)N[C@H](CCC(=O)O)C(=O)N[C@@](C)(Cc1ccc(O)cc1)C(=O)N[C@@H](CC(C)C)C(=O)N[C@H](C(=O)N[C@@H](CCCCNC(=O)COCCOCCNC(=O)COCCOCCNC(=O)CC[C@H](NC(=O)CCCCCCCCCCCCC(=O)O)C(=O)O)C(=O)NCC(=O)NCC(=O)N1CCC[C@H]1C(=O)N[C@@H](CO)C(=O)N[C@@H](CO)C(=O)NCC(=O)N[C@@H](C)C(=O)N1CCC[C@H]1C(=O)N1CCC[C@H]1C(=O)N1CCC[C@H]1C(=O)N[C@@H](CO)C(N)=O)[C@@H](C)CC)[C@@H](C)CC [Example 220]	150	110	87.6	0.535	> 9950	> 9950	83.5	91.6	0.0237	11.6	–	–	–	–	–	–	–	–	–	–
